Source: patent publication US20130005747A1, “METHOD FOR SELECTING A CANCER THERAPY” (Cyclacel Limited, priority 2010, published 2013)

Experiments:
Assay in all cases: Fractional growth, 72 h seliciclib
Assay type in all cases: cell-based, human
HLE = HLE (Liver), 15 μM seliciclib
Description: (§1) A total of 270 human cancer cell lines from diverse cancer histopathologic types were investigated.

639-V = 639-V (Bladder), 15 μM seliciclib
Description: as §1

SK-N-MC = SK-N-MC (Brain), 15 μM seliciclib
Description: as §1

MS751 = MS751 (Cervix), 15 μM seliciclib
Description: as §1

NCI-H520 = NCI-H520 (Lung: NSCLC), 15 μM seliciclib
Description: as §1

SK-MEL-37 = SK-MEL-37 (Skin), 15 μM seliciclib
Description: as §1

LU65C = LU65C (Lung: NSCLC), 15 μM seliciclib
Description: as §1

SW 1116 = SW 1116 (Intestine), 15 μM seliciclib
Description: as §1

HUP-T3 = HUP-T3 (Pancreas), 15 μM seliciclib
Description: as §1

PC-9 = PC-9 (Lung: NSCLC), 15 μM seliciclib
Description: as §1

MFM-223 = MFM-223 (Breast), 15 μM seliciclib
Description: as §1

SKG-IIIb = SKG-IIIb (Cervix), 15 μM seliciclib
Description: as §1

JHU-013 = JHU-013 (Head & Neck), 15 μM seliciclib
Description: as §1

JHU-028EP = JHU-028EP (Head & Neck), 15 μM seliciclib
Description: as §1

COLO 205 = COLO 205 (Intestine), 15 μM seliciclib
Description: as §1

Calu-3 = Calu-3 (Lung: NSCLC), 15 μM seliciclib
Description: as §1

NCI-H1792 = NCI-H1792 (Lung: NSCLC), 15 μM seliciclib
Description: as §1

IGR-1 = IGR-1 (Skin), 15 μM seliciclib
Description: as §1

YAPC = YAPC (Pancreas), 15 μM seliciclib
Description: as §1

GAMG = GAMG (Brain), 15 μM seliciclib
Description: as §1

PCI-4B = PCI-4B (Head & Neck), 15 μM seliciclib
Description: as §1

SK-N-AS = SK-N-AS (Brain), 15 μM seliciclib
Description: as §1

NCI-H647 = NCI-H647 (Lung: NSCLC), 15 μM seliciclib
Description: as §1

G-292 Clone A141B1 = G-292 Clone A141B1 (Bone), 15 μM seliciclib
Description: as §1

Lu-135 = Lu-135 (Lung), 15 μM seliciclib
Description: as §1

HSC-3 = HSC-3 (Head & Neck), 15 μM seliciclib
Description: as §1

PCI-15 = PCI-15 (Head & Neck), 15 μM seliciclib
Description: as §1

H2722 = H2722 (Lung), 15 μM seliciclib
Description: as §1

GCT = GCT (Miscellaneous), 15 μM seliciclib
Description: as §1

Panc 04.03 = Panc 04.03 (Pancreas), 15 μM seliciclib
Description: as §1

BEN = BEN (Lung: NSCLC), 15 μM seliciclib
Description: as §1

HGC-27 = HGC-27 (Stomach), 15 μM seliciclib
Description: as §1

PFSK-1 = PFSK-1 (Brain), 15 μM seliciclib
Description: as §1

NCI-H1975 = NCI-H1975 (Lung: NSCLC), 15 μM seliciclib
Description: as §1

KATO III = KATO III (Stomach), 15 μM seliciclib
Description: as §1

ESS-1 = ESS-1 (Uterus), 15 μM seliciclib
Description: as §1

PANC-1 = PANC-1 (Pancreas), 15 μM seliciclib
Description: as §1

## CC[C@H](CO)Nc1nc(NCc2ccccc2)c2ncn(C(C)C)c2n1 [seliciclib, roscovitine]
HLE
  Fractional Growth: 0.1553
639-V
  Fractional Growth: 0.4196
SK-N-MC
  Fractional Growth: 0.283
MS751
  Fractional Growth: 0.3573
NCI-H520
  Fractional Growth: 0.6863
SK-MEL-37
  Fractional Growth: 0.5209
LU65C
  Fractional Growth: 0.3767
SW 1116
  Fractional Growth: 0.7592
HUP-T3
  Fractional Growth: 0.4333
PC-9
  Fractional Growth: 0.7822
MFM-223
  Fractional Growth: 0.5683
SKG-IIIb
  Fractional Growth: 0.6636
JHU-013
  Fractional Growth: 0.2699
JHU-028EP
  Fractional Growth: 0.3716
COLO 205
  Fractional Growth: 0.4437
Calu-3
  Fractional Growth: 0.6463
NCI-H1792
  Fractional Growth: 0.4649
IGR-1
  Fractional Growth: 0.5764
YAPC
  Fractional Growth: 0.588
GAMG
  Fractional Growth: 0.571
PCI-4B
  Fractional Growth: 0.4686
SK-N-AS
  Fractional Growth: 0.7261
NCI-H647
  Fractional Growth: 0.4521
G-292 Clone A141B1
  Fractional Growth: 0.6393
Lu-135
  Fractional Growth: 0.2812
HSC-3
  Fractional Growth: 0.5223
PCI-15
  Fractional Growth: 0.2641
H2722
  Fractional Growth: 0.8974
GCT
  Fractional Growth: 0.4799
Panc 04.03
  Fractional Growth: 0.4899
BEN
  Fractional Growth: 0.4149
HGC-27
  Fractional Growth: 0.2806
PFSK-1
  Fractional Growth: 0.249
NCI-H1975
  Fractional Growth: 0.4117
KATO III
  Fractional Growth: 0.4299
ESS-1
  Fractional Growth: 0.4399
PANC-1
  Fractional Growth: 0.5761
